Experimental data taken from US10792283B2, “Quinoline analogs as phosphatidylinositol 3-kinase inhibitors” (HANGZHOU ZHENGXIANG PHARMACEUTICALS CO., LTD., priority 2016, dated 2020).
Where two headings read alike, the source gives them in different places. Blank lines part the entries; values can stand above or below the compound they belong to.

How the values were obtained:
[1] = system: JVM-2; experiment: Cytotoxicity assay (CTG, 72 h) in JVM-2; format: cell-based
Description: (§1) Cytotoxicity assay of compound 2 of Table 1 in selected cell lines
(§2) Day 0: cell seeding for all cell lines with the density of 10000 cells/80 μL/well.
(§3) Day 1, drug treatment: Prepare 3-fold serial dilutions of compound stock solutions with growth medium. Dispense 20 μL (5×) drμg solution in each well (duplicates for each concentration), the final DMSO concentration of each well treated with test compound and corresponding vehicle control is 0.1%. Incubate the plate for 72 h in specified incubator.
(§4) Day 4, plate reading: Thaw CTG solution and equilibrate to room temperature, add 100 μL of CTG per well, mix the contents for 2 min on the plate shaker, incubate for 10 min before recording the luminescence signal using Envision.

[2] = system: SU-DHL-4; experiment: Cytotoxicity assay (CTG, 72 h) in SU-DHL-4; format: cell-based
Description: as §1, §2, §3, §4

[3] = system: SU-DHL-5; experiment: Cytotoxicity assay (CTG, 72 h) in SU-DHL-5; format: cell-based
Description: as §1, §2, §3, §4

[4] = system: SU-DHL-6; experiment: Cytotoxicity assay (CTG, 72 h) in SU-DHL-6; format: cell-based
Description: as §1, §2, §3, §4

[5] = system: EHEB; experiment: Cytotoxicity assay (CTG, 72 h) in EHEB; format: cell-based; settings: cell viability
Description: as §1, §2, §3, §4

[6] = target: PI3Kδ (Homo sapiens (Human), UniProt O00329); experiment: Enzymatic activity of PI3K isoforms, TR-FRET assay; format: biochemical; settings: 10 μM ATP
Chain of PI3Kδ (O00329 whole entry, canonical isoform): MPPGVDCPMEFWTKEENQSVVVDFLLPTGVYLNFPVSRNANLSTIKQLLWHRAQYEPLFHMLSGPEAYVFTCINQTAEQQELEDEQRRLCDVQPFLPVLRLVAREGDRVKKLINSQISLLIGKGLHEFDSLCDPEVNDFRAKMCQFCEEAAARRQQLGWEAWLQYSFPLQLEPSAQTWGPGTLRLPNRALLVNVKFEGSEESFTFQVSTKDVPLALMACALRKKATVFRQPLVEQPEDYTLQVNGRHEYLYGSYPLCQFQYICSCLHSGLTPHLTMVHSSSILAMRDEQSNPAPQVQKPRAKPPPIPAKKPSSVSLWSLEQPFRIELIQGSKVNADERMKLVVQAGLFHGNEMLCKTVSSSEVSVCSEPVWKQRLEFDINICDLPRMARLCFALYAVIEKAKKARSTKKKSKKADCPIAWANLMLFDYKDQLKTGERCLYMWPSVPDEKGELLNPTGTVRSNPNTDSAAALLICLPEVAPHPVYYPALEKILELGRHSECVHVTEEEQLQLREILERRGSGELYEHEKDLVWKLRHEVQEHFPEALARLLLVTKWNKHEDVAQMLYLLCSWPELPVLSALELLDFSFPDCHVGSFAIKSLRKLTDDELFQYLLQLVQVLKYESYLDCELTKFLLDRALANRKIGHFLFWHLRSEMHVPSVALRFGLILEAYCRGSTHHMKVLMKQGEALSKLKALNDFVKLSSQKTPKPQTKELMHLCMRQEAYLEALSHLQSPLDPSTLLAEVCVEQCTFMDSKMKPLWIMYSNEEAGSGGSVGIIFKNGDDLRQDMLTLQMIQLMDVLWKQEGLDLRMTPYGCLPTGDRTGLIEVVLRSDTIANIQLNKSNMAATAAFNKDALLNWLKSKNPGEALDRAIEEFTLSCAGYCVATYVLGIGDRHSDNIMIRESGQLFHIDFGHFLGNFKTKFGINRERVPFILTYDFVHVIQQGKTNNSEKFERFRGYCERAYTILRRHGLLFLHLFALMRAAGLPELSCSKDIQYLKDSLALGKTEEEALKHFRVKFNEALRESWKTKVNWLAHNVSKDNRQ
Chain of PI3Kδ (P27986 whole entry partner, canonical isoform): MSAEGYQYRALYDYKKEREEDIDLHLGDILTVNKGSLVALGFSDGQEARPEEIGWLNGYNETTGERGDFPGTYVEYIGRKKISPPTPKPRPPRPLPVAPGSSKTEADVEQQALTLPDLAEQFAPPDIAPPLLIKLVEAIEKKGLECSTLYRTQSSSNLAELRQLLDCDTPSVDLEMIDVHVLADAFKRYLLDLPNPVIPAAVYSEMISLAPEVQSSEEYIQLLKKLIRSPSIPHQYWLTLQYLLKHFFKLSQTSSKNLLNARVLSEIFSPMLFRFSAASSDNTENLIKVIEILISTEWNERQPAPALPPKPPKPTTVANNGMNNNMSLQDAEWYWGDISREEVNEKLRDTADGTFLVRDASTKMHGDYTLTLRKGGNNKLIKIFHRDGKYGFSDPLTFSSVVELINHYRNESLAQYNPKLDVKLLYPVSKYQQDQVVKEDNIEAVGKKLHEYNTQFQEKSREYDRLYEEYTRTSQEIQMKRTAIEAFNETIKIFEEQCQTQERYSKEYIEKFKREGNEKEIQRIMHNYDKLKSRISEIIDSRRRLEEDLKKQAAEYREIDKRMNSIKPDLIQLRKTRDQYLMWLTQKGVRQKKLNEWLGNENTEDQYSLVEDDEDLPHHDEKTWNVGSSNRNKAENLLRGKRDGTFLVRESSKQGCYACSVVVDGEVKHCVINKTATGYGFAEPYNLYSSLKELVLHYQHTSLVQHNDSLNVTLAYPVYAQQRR
Description: Enzymatic activity of the class I PI3K isoforms in the presence of the compounds of Table 1 above was measured using a time-resolved fluorescence resonance energy transfer (TR-FRET) assay.
The TR-FRET assay can monitor formation of the product 3,4,5-inositol triphosphate molecule (PIP3) as it competed with fluorescently labeled PIP3 for binding to the GRP-1 pleckstrin homology domain protein. An increase in […] product results in a decrease in TR-FRET signal as the labeled fluorophore is displaced from the GRP-1 protein binding site.
Control compound, PI-103, was tested in 10-dose IC50 with 3-fold serial dilution starting at 10 μm.
Data are normalized based on negative (DMSO) control. The alpha, beta, delta, and gamma IC50 values were calculated from the fit of the dose-response curves to a four parameter equation. IC50 are reported in units of nM.
IC50 values were obtained for all PI3K isoforms (α, β, δ, and γ), and Table 2 summarizes the IC50 data collected for PI3Kδ in this Example.

[7] = Hepatocyte stability (parent drug disappearance in cryopreserved hepatocytes); format: in vitro ADME, human; settings: for half-life at 1 μM: human, cryopreserved hepatocytes
Description: The hepatocyte assay was used to evaluate the metabolic stability of test articles (TA) following incubation in cryopreserved hepatocytes by monitoring parent drug disappearance via […]. The TA with 1% final DMSO concentration was incubated with 0.5 million hepatocytes/ml at 1 μM substrate in duplicate. The incubation was carried out at 37° C. with 5% CO2 and saturating humidity. Samples were taken at 0, 1, 2, and 3 hours to monitor the disappearance of TA and a half-life (t ½) was determined. Table 2 below summarizes the t½ values (e.g. t ½) collected from this Example.

[8] = PK profile after iv and PO dosing in rats; format: in vivo, SD rats
Description: Compound 2 was dosed by both iv and PO in the rats.

[9] = cited from earlier work
[10] = cited from earlier work; remark: listed apart in the source
[11] = 1 μM substrate, 0.5 million hepatocytes/ml, 37° C., read-out: hepatocyte T1/2 (converted)
[12] = Homo sapiens, JVM-2, cell viability
[13] = human hepatocytes, Table 3 comparison, read-out: T ½
[14] = Homo sapiens, SU-DHL-4, cell viability
[15] = Sprague-Dawley, rat, in vivo, 1.32 mg/kg, iv, rats
[16] = Sprague-Dawley, rat, in vivo, po, 10 mg/kg, SD rats
[17] = Homo sapiens, SU-DHL-5, cell viability
[18] = Homo sapiens, SU-DHL-6, cell viability
[19] = IV, data from idelalisib NDA filing
[20] = oral, data from idelalisib NDA filing

Structure (SMILES): N.N.[Cl][Pt][Cl] [Cisplatin]
IC50 ([1]; cell viability): 0.749 µM | IC50 ([2]; cell viability): 0.507 µM | IC50 ([3]; cell viability): 0.28 µM | IC50 ([4]; cell viability): 5.61 µM | IC50 [5]: 2.59 µM

Structure (SMILES): CC[C@H](Nc1ncnc2[nH]cnc12)c1nc2cccc(F)c2c(=O)n1-c1ccccc1 [Idelalisib, idelalisib]
AUCinf [9, 19]: 1151 ± 407 ng·h/mL | Cl [9, 19]: 478 ± 19 mL/min/kg | Cmax [9, 19]: 1437 ± 220 ng/mL | Tmax [9, 19]: 0.08 h | VSS [9, 19]: 2.49 L/kg | AUCinf [9, 20]: 422 ± 67 ng·h/mL | Cmax [9, 20]: 129 ± 49 ng/mL | Tmax [9, 20]: 3.00 h | t1/2 ([9]; rat, in vivo, iv): 1.89 h | IC50 [1, 12]: 1.43 µM | Fatal and/or serious hepatotoxicity, % of patients ([10]; combination trials): 11% | Fatal and/or serious hepatotoxicity, % of patients ([10]; monotherapy): 18% | IC50 [2, 14]: 0.198 µM | IC50 [3, 17]: 1.68 µM | IC50 [4, 18]: 0.13 µM | IC50 [5]: 0.506 µM

Structure (SMILES): C[C@H](Nc1ncnc(N)c1C#N)c1cc2ccc(F)cc2nc1-c1ccccc1 [D, reference compound]
half-life at 1 μM [7, 11]: 600 min

Structure (SMILES): C[C@H](Nc1ncnc(N)c1C#N)c1cc2ccc(F)cc2nc1-c1cccc(F)c1 [G, reference compound]
half-life at 1 μM [7, 11]: 72 min | half-life at 1 μM [7, 13]: < 90 min

Structure (SMILES): C[C@H](Nc1ncnc(N)c1C#N)c1cc2ccc(F)cc2nc1-c1ccccc1S(C)(=O)=O [Compound E, reference compound]
half-life at 1 μM [7, 11]: 288 min

Structure (SMILES): C[C@H](Nc1nc(N)nc(N)c1C#N)c1cc2ccc(F)cc2nc1-c1cc(F)cc(F)c1 [Compound 3, (S)-2,4-Diamino-6-{1-[2-(3,5-difluoro-phenyl)-7-fluoro-quinolin-3-yl]-ethylamino}-pyrimidine-5-carbonitrile]
half-life at 1 μM [7, 11]: 1020 min | IC50 [6]: 0.24 nM

Structure (SMILES): C[C@H](Nc1nc(N)nc(N)c1C#N)c1cc2ccc(F)cc2nc1-c1ccccc1S(C)(=O)=O [Compound 4, (S)-2,4-Diamino-6-{1-[7-fluoro-2-(2-methanesulfonyl-phenyl)-quinolin-3-yl]-ethylamino}-pyrimidine-5-carbonitrile]
half-life at 1 μM [7, 11]: 360 min | improved stability in human hepatocytes (longer half-life), fold ([7]; versus compound E): 1.3 × | IC50 [6]: 0.27 nM

Structure (SMILES): C[C@H](Nc1ncnc(N)c1C#N)c1cc2cccc(F)c2nc1-c1ccccc1S(C)(=O)=O [F, reference compound]
half-life at 1 μM [7, 11]: 354 min | half-life at 1 μM [7, 13]: < 360 min

More lines, main results first:

IC50 [6]: 0.97 nM
Structure (SMILES): C[C@H](Nc1nc(N)nc(N)c1C#N)c1cc2cccc(Cl)c2nc1-c1ccccn1 [Compound 8, (S)-2,4-Diamino-6-[1-(8-chloro-2-pyridin-2-yl-quinolin-3-yl)-ethylamino]-pyrimidine-5-carbonitrile]

half-life at 1 μM [7, 11]: 540 min
Structure (SMILES): C[C@H](Nc1nc(N)nc(N)c1C#N)c1cc2cccc(F)c2nc1-c1ccccn1 [Compound 6, (S)-2,4-Diamino-6-[1-(8-fluoro-2-pyridin-2-yl-quinolin-3-yl)-ethylamino]-pyrimidine-5-carbonitrile]

half-life at 1 μM [7, 11]: 3180 min | half-life at 1 μM [7, 13]: > 2880 min | IC50 [6]: 0.086 nM | AUC(0-inf) [8, 15]: 4550 ng·h/mL | Cmax [8, 15]: 1090 ng/mL | Tmax [8, 15]: 0.08 h | clearance [8, 15]: 4.6 mL/min/kg | half-life [8, 15]: 213 min | Vd ([8]; Sprague-Dawley, rat, in vivo, 1.32 mg/kg, iv, rats, read-out: VSS): 1.12 L/kg | AUC(0-inf) [8, 16]: 29500 ng·h/mL | Cmax [8, 16]: 3170 ng/mL | Tmax [8, 16]: 2 h | bioavailability [8, 16]: 80% | half-life [8, 16]: 187 min | AUCinf/Dose ([8]; iv, rats): 3448 | Cmax/Dose ([8]; iv, rats): 828 | Oral exposure corrected with dose (AUCinf/dose), fold higher than that of idelalisib ([8]; oral dose 10 mg/kg, SD rats, versus idelalisib): 20 fold | AUCinf/Dose ([8]; po, 10 mg/kg, SD rats): 2949 | Cl ([8]; po, 10 mg/kg, SD rats): 4.6 mL/min/kg | Cmax/Dose ([8]; po, 10 mg/kg, SD rats): 317
Structure (SMILES): C[C@H](Nc1nc(N)nc(N)c1C#N)c1cc2ccc(F)cc2nc1-c1ccccn1 [Compound 2, (S)-2,4-Diamino-6-[1-(7-fluoro-2-pyridin-2-yl-quinolin-3-yl)-ethylamino]-pyrimidine-5-carbonitrile]
IC50 [1, 12]: 0.931 µM | IC50 [2, 14]: 0.088 µM | IC50 [3, 17]: 0.493 µM | IC50 [4, 18]: 0.035 µM | IC50 [5]: 0.216 µM

half-life at 1 μM [7, 11]: 3540 min | half-life at 1 μM [7, 13]: > 2880 min | IC50 [6]: 2.1 nM
Structure (SMILES): C[C@H](Nc1nc(N)nc(N)c1C#N)c1cc2cccc(F)c2nc1-c1ccccc1S(C)(=O)=O [Compound 7, (S)-2,4-Diamino-6-{1-[8-fluoro-2-(2-methanesulfonyl-phenyl)-quinolin-3-yl]-ethylamino}-pyrimidine-5-carbonitrile]

half-life at 1 μM [7, 11]: 1620 min | improved stability in human hepatocytes (longer half-life), fold ([7]; versus compound D): 2.7 × | IC50 [6]: 0.043 nM
Structure (SMILES): C[C@H](Nc1nc(N)nc(N)c1C#N)c1cc2ccc(F)cc2nc1-c1ccccc1 [Compound 1, (S)-2,4-diamino-6-[1-(7-fluoro-2-phenyl-quinolin-3-yl)-ethylamino]-pyrimidine-5-carbonitrile]

half-life at 1 μM [7, 11]: 52.8 min | half-life at 1 μM [7, 13]: < 60 min
Structure (SMILES): C[C@H](Nc1ncnc(N)c1C#N)c1cc2ccc(F)cc2nc1-c1ccccn1 [H, reference compound]

half-life at 1 μM [7, 11]: 1200 min | half-life at 1 μM [7, 13]: > 720 min | IC50 [6]: 0.14 nM
Structure (SMILES): C[C@H](Nc1nc(N)nc(N)c1C#N)c1cc2ccc(F)cc2nc1-c1cccc(F)c1 [Compound 5, (S)-2,4-diamino-6-{1-[7-fluoro-2-(3-fluoro-phenyl)-quinolin-3-yl]-ethylamino}-pyrimidine-5-carbonitrile]
